# From paper PMC11322497 (Frontiers in Pharmacology, 2024)
# Assays:
# [1] = test system: high fat diet (HFD) rabbit model of metabolic-associated steatohepatitis (MASH); experiment: HFD rabbit study, prolonged 4-week treatment: fibrosis and inflammation markers mRNA expression; type: in vivo, New Zealand White rabbits; conditions: HFD rabbits, weeks 9–12, mean±SD, n=7
# Description: (§1) After 1 week (W) of RD, the animals (n = 44) were randomly assigned to the following groups (Table 1B): • Control rabbits continued to receive a RD for 12 weeks and were treated with vehicle for 5 days a week (days 1–5, p.o.) during the last 4 weeks before culling (RD + 4W Veh group); • Rabbits received a HFD for 8 weeks and were culled (HFD 8W group); • Rabbits received a HFD for 12 weeks and were treated with vehicle for 5 days a week (days 1–5, p.o.) during the last 4 weeks before culling (HFD+4W Veh group); • Rabbits received a HFD for 12 weeks and were treated with GB1211 (0.3 mg/kg) for 5 days a week (days 1–5, p.o.) during the last 4 weeks before culling (HFD + 4W 0.3 mg group); • Rabbits received a HFD for 12 weeks and were treated with GB1211 (1.0 mg/kg) for 5 days a week (days 1–5, p.o.) during the last 4 weeks before culling (HFD + 4W 1.0 mg group); • Rabbits received a HFD for 12 weeks and were treated with GB1211 (5.0 mg/kg) for 5 days a week (days 1–5, p.o.) during the last 4 weeks before culling (HFD + 4W 5.0 mg group).
# TRIzol reagent (Life Technologies, Paisley, United Kingdom) and/or RNeasy Mini Kit (Qiagen, Hilden, Germany) were used to isolate total RNA from rabbit liver specimens. RNA concentration and quality were measured using a Nanodrop ND-1000 (Thermo Fisher Scientific) at 260 nm and 280 nm. The OD 260/280 absorbance ratios were between 2.0 and 2.1 for all samples, to confirm RNA integrity and purification. cDNA synthesis was carried out using the iScript™ cDNA Synthesis Kit (Bio-Rad Laboratories, Hercules, CA), with 100 ng of mRNA in 20 µL reaction volume in accordance with the following protocol: 5 min at 25°C, 20 min at 46°C and 5 min at 85°C, followed by refrigeration at 4°C.
# Semi-quantitative real-time RT-PCR (qRT-PCR) amplification and detection was performed with SsoAdvanced™ universal SYBR® Supermix and a CFX96 Two-Color Real-Time PCR Detection System (both Bio-Rad Laboratories) with the following thermal cycler conditions: 40 cycles at 95°C for 15 s and 60°C for 1 min. Specific PCR primers for rabbit target genes were designed on sequences available at the National Center for Biotechnology Information GenBank (http://www.ncbi.nlm.nih.gov) or Ensemble Genome (http://www.ensembl.org).
# The 18S ribosomal RNA subunit was quantified with a predeveloped assay (Hs99999901_s1, Life Technologies) and used as the housekeeping gene for the relative quantitation of the target genes based on the comparative threshold cycle (Ct) 2^−ΔΔCt method ([Livak and Schmittgen, 2001]), with some modifications. In detail, we used the vehicle control groups as the calibrator in each analysis, so that the calculations would provide the fold-change of the other groups relative to controls.
# [2] = test system: high fat diet (HFD) rabbit model of metabolic-associated steatohepatitis (MASH); experiment: HFD rabbit study, prolonged 4-week treatment: protein expression in liver homogenates; type: in vivo, New Zealand White rabbits; conditions: HFD rabbits, weeks 9–12, mean±SD, n=3
# Description: as §1
# Quantitative analyses of collagen, IL6 and TNFα expression in liver biopsies were carried out using available commercial assays. Collagen content was evaluated in liver homogenates employing the Sircol S2000 assay (Biocolor, Carrickfergus, United Kingdom), in accordance with manufacturer’s protocols. Briefly, 30 mg liver biopsies were fragmented in the appropriate reagent and the supernatant was bound to a dye reagent containing Sirius Red, which would generate a colorimetric reaction quantified as absorbance using an internal collagen standard curve. IL6 and TNFα were quantified in liver homogenates using ELISA assay kits (both from Cloud-Clone Corp, Katy, TX). Briefly, 50 mg liver biopsies were homogenized in proprietary lysis buffer and the supernatants were analyzed by sandwich immunoassays, following the producer’s instructions.
# [3] = target: mouse galectin-3; parameters: method as in Zetterberg et al., 2022; conditions: ref Zetterberg et al., 2022; read-out: binding affinity for mouse galectin-3; cited from earlier work
compound,measurement,setting,value
OC[C@H]1O[C@H](Sc2cncc(Br)c2)[C@H](O)[C@@H](n2cc(-c3cc(F)c(F)c(F)c3)nn2)[C@H]1O [selvigaltin],CD4 liver mRNA expression,[1]; 0.3 mg/kg p.o.,1.96 ± 0.51 fold-change vs. RD+Veh
same,COL1A1 liver mRNA expression,[1]; 0.3 mg/kg p.o.,45.14 ± 43.26 fold-change vs. RD+Veh
same,COL3A1 liver mRNA expression,[1]; 0.3 mg/kg p.o.,12.38 ± 9.89 fold-change vs. RD+Veh
same,COX-2 liver mRNA expression,[1]; 0.3 mg/kg p.o.,8.60 ± 4.94 fold-change vs. RD+Veh
same,EDN1 liver mRNA expression,[1]; 0.3 mg/kg p.o.,1.08 ± 0.33 fold-change vs. RD+Veh
same,EDNRA liver mRNA expression,[1]; 0.3 mg/kg p.o.,3.66 ± 2.05 fold-change vs. RD+Veh
same,EDNRB liver mRNA expression,[1]; 0.3 mg/kg p.o.,1.60 ± 0.42 fold-change vs. RD+Veh
same,FN1 liver mRNA expression,[1]; 0.3 mg/kg p.o.,1.79 ± 0.76 fold-change vs. RD+Veh
same,FOXP3 liver mRNA expression,[1]; 0.3 mg/kg p.o.,2.85 ± 1.40 fold-change vs. RD+Veh
same,IL1β liver mRNA expression,[1]; 0.3 mg/kg p.o.,1.33 ± 0.37 fold-change vs. RD+Veh
same,IL2 liver mRNA expression,[1]; 0.3 mg/kg p.o.,2.98 ± 1.16 fold-change vs. RD+Veh
same,IL6 liver mRNA expression,[1]; 0.3 mg/kg p.o.,2.43 ± 1.89 fold-change vs. RD+Veh
same,LGALS3 liver mRNA expression,[1]; 0.3 mg/kg p.o.,63.90 ± 24.46 fold-change vs. RD+Veh
same,MCP1 liver mRNA expression,[1]; 0.3 mg/kg p.o.,7.70 ± 6.93 fold-change vs. RD+Veh
same,PAI-1 liver mRNA expression,[1]; 0.3 mg/kg p.o.,4.91 ± 1.83 fold-change vs. RD+Veh
same,RAGE liver mRNA expression,[1]; 0.3 mg/kg p.o.,1.99 ± 1.10 fold-change vs. RD+Veh
same,SNAI1 liver mRNA expression,[1]; 0.3 mg/kg p.o.,2.05 ± 2.05 fold-change vs. RD+Veh
same,SNAI2 liver mRNA expression,[1]; 0.3 mg/kg p.o.,2.28 ± 1.03 fold-change vs. RD+Veh
same,TGFβ1 liver mRNA expression,[1]; 0.3 mg/kg p.o.,4.06 ± 1.62 fold-change vs. RD+Veh
same,TGFβ3 liver mRNA expression,[1]; 0.3 mg/kg p.o.,1.73 ± 0.80 fold-change vs. RD+Veh
same,TLR4 liver mRNA expression,[1]; 0.3 mg/kg p.o.,3.89 ± 1.45 fold-change vs. RD+Veh
same,TNFα liver mRNA expression,[1]; 0.3 mg/kg p.o.,4.39 ± 0.96 fold-change vs. RD+Veh
same,αSMA liver mRNA expression,[1]; 0.3 mg/kg p.o.,4.64 ± 4.05 fold-change vs. RD+Veh
same,CD4 liver mRNA expression,[1]; 1.0 mg/kg p.o.,1.33 ± 0.66 fold-change vs. RD+Veh
same,COL1A1 liver mRNA expression,[1]; 1.0 mg/kg p.o.,9.00 ± 6.03 fold-change vs. RD+Veh
same,COL3A1 liver mRNA expression,[1]; 1.0 mg/kg p.o.,3.49 ± 2.11 fold-change vs. RD+Veh
same,COX-2 liver mRNA expression,[1]; 1.0 mg/kg p.o.,6.14 ± 3.84 fold-change vs. RD+Veh
same,EDN1 liver mRNA expression,[1]; 1.0 mg/kg p.o.,0.99 ± 0.28 fold-change vs. RD+Veh
same,EDNRA liver mRNA expression,[1]; 1.0 mg/kg p.o.,2.13 ± 1.20 fold-change vs. RD+Veh
same,EDNRB liver mRNA expression,[1]; 1.0 mg/kg p.o.,1.58 ± 0.31 fold-change vs. RD+Veh
same,FN1 liver mRNA expression,[1]; 1.0 mg/kg p.o.,1.06 ± 0.22 fold-change vs. RD+Veh
same,FOXP3 liver mRNA expression,[1]; 1.0 mg/kg p.o.,1.39 ± 0.43 fold-change vs. RD+Veh
same,IL1β liver mRNA expression,[1]; 1.0 mg/kg p.o.,1.18 ± 0.45 fold-change vs. RD+Veh
same,IL2 liver mRNA expression,[1]; 1.0 mg/kg p.o.,1.85 ± 1.16 fold-change vs. RD+Veh
same,IL6 liver mRNA expression,[1]; 1.0 mg/kg p.o.,0.58 ± 0.22 fold-change vs. RD+Veh
same,LGALS3 liver mRNA expression,[1]; 1.0 mg/kg p.o.,50.04 ± 15.84 fold-change vs. RD+Veh
same,MCP1 liver mRNA expression,[1]; 1.0 mg/kg p.o.,4.23 ± 1.50 fold-change vs. RD+Veh
same,PAI-1 liver mRNA expression,[1]; 1.0 mg/kg p.o.,4.93 ± 2.25 fold-change vs. RD+Veh
same,RAGE liver mRNA expression,[1]; 1.0 mg/kg p.o.,1.14 ± 0.36 fold-change vs. RD+Veh
same,SNAI1 liver mRNA expression,[1]; 1.0 mg/kg p.o.,1.30 ± 1.21 fold-change vs. RD+Veh
same,SNAI2 liver mRNA expression,[1]; 1.0 mg/kg p.o.,1.15 ± 0.42 fold-change vs. RD+Veh
same,TGFβ1 liver mRNA expression,[1]; 1.0 mg/kg p.o.,2.87 ± 1.14 fold-change vs. RD+Veh
same,TGFβ3 liver mRNA expression,[1]; 1.0 mg/kg p.o.,1.20 ± 0.54 fold-change vs. RD+Veh
same,TLR4 liver mRNA expression,[1]; 1.0 mg/kg p.o.,3.63 ± 0.90 fold-change vs. RD+Veh
same,TNFα liver mRNA expression,[1]; 1.0 mg/kg p.o.,3.67 ± 2.21 fold-change vs. RD+Veh
same,αSMA liver mRNA expression,[1]; 1.0 mg/kg p.o.,1.75 ± 1.34 fold-change vs. RD+Veh
same,CD4 liver mRNA expression,[1]; 5.0 mg/kg p.o.,2.60 ± 1.97 fold-change vs. RD+Veh
same,COL1A1 liver mRNA expression,[1]; 5.0 mg/kg p.o.,25.20 ± 23.86 fold-change vs. RD+Veh
same,COL3A1 liver mRNA expression,[1]; 5.0 mg/kg p.o.,7.26 ± 6.59 fold-change vs. RD+Veh
same,COX-2 liver mRNA expression,[1]; 5.0 mg/kg p.o.,13.87 ± 22.12 fold-change vs. RD+Veh
same,EDN1 liver mRNA expression,[1]; 5.0 mg/kg p.o.,1.09 ± 0.51 fold-change vs. RD+Veh
same,EDNRA liver mRNA expression,[1]; 5.0 mg/kg p.o.,3.04 ± 2.38 fold-change vs. RD+Veh
same,EDNRB liver mRNA expression,[1]; 5.0 mg/kg p.o.,2.49 ± 2.19 fold-change vs. RD+Veh
same,FN1 liver mRNA expression,[1]; 5.0 mg/kg p.o.,1.51 ± 0.74 fold-change vs. RD+Veh
same,FOXP3 liver mRNA expression,[1]; 5.0 mg/kg p.o.,3.57 ± 1.87 fold-change vs. RD+Veh
same,IL1β liver mRNA expression,[1]; 5.0 mg/kg p.o.,1.32 ± 0.62 fold-change vs. RD+Veh
same,IL2 liver mRNA expression,[1]; 5.0 mg/kg p.o.,3.33 ± 2.66 fold-change vs. RD+Veh
same,IL6 liver mRNA expression,[1]; 5.0 mg/kg p.o.,1.59 ± 1.33 fold-change vs. RD+Veh
same,LGALS3 liver mRNA expression,[1]; 5.0 mg/kg p.o.,67.63 ± 53.87 fold-change vs. RD+Veh
same,MCP1 liver mRNA expression,[1]; 5.0 mg/kg p.o.,5.47 ± 2.52 fold-change vs. RD+Veh
same,PAI-1 liver mRNA expression,[1]; 5.0 mg/kg p.o.,5.06 ± 3.07 fold-change vs. RD+Veh
same,RAGE liver mRNA expression,[1]; 5.0 mg/kg p.o.,1.73 ± 0.67 fold-change vs. RD+Veh
same,SNAI1 liver mRNA expression,[1]; 5.0 mg/kg p.o.,2.32 ± 1.38 fold-change vs. RD+Veh
same,SNAI2 liver mRNA expression,[1]; 5.0 mg/kg p.o.,1.68 ± 0.79 fold-change vs. RD+Veh
same,TGFβ1 liver mRNA expression,[1]; 5.0 mg/kg p.o.,3.96 ± 2.80 fold-change vs. RD+Veh
same,TGFβ3 liver mRNA expression,[1]; 5.0 mg/kg p.o.,1.87 ± 0.71 fold-change vs. RD+Veh
same,TLR4 liver mRNA expression,[1]; 5.0 mg/kg p.o.,3.90 ± 1.30 fold-change vs. RD+Veh
same,TNFα liver mRNA expression,[1]; 5.0 mg/kg p.o.,3.80 ± 1.84 fold-change vs. RD+Veh
same,αSMA liver mRNA expression,[1]; 5.0 mg/kg p.o.,3.17 ± 2.57 fold-change vs. RD+Veh
same,Collagen protein in liver homogenate,[2]; 0.3 mg/kg p.o.,57.63 ± 2.73 µg/mg Liver
same,IL6 protein in liver homogenate,[2]; 0.3 mg/kg p.o.,76.12 ± 8.47 pg/g Liver
same,TNFα protein in liver homogenate,[2]; 0.3 mg/kg p.o.,1.61 ± 0.54 pg/mg Liver
same,Collagen protein in liver homogenate,[2]; 1.0 mg/kg p.o.,45.25 ± 3.42 µg/mg Liver
same,IL6 protein in liver homogenate,[2]; 1.0 mg/kg p.o.,63.53 ± 20.39 pg/g Liver
same,TNFα protein in liver homogenate,[2]; 1.0 mg/kg p.o.,1.24 ± 0.58 pg/mg Liver
same,Collagen protein in liver homogenate,[2]; 5.0 mg/kg p.o.,50.86 ± 5.22 µg/mg Liver
same,IL6 protein in liver homogenate,[2]; 5.0 mg/kg p.o.,64.27 ± 18.36 pg/g Liver
same,TNFα protein in liver homogenate,[2]; 5.0 mg/kg p.o.,1.33 ± 0.68 pg/mg Liver
same,Kd,[3],0.77 µM
